Measurements taken from ChEMBL document CHEMBL1201862, “PubChem BioAssay data set” (2004).
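The compound was tested at five concentrations on cells cultured in 96-well plates, with a 48-hour exposure period. The concentration for 50% growth inhibition is given as GI50.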 The source made the active and inactive calls. No stated cut-off is given here; in the data, active = GI50 up to about 1.1 µM and inactive = higher.

Experiments:
Assay in all cases: NCI-60 cell line screen, 48 h
SR = system: SR
M14 = system: M14
SNB-75 = system: SNB-75
KM12 = system: KM12
SK-MEL-28 = system: SK-MEL-28
IGROV-1 = system: IGROV-1
BT-549 = system: BT-549
U-251 = system: U-251
UO-31 = system: UO-31
SF-295 = system: SF-295
RXF 393 = system: RXF 393
OVCAR-4 = system: OVCAR-4
K562 = system: K562
UACC-62 = system: UACC-62
OVCAR-5 = system: OVCAR-5
HL-60 = system: HL-60
MCF7 = system: MCF7
DU-145 = system: DU-145
NCI-H460 = system: NCI-H460
Malme-3M = system: Malme-3M

| SMILES | GI50 (SR) | GI50 (M14) | GI50 (SNB-75) | GI50 (KM12) | GI50 (SK-MEL-28) | GI50 (IGROV-1) | GI50 (BT-549) | GI50 (U-251) | GI50 (UO-31) | GI50 (SF-295) | GI50 (RXF 393) | GI50 (OVCAR-4) | GI50 (K562) | GI50 (UACC-62) | GI50 (OVCAR-5) | GI50 (HL-60) | GI50 (MCF7) | GI50 (DU-145) | GI50 (NCI-H460) | GI50 (Malme-3M) |
| --- | --- | --- | --- | --- | --- | --- | --- | --- | --- | --- | --- | --- | --- | --- | --- | --- | --- | --- | --- | --- |
| C(=C\Nc1ccc(-c2ccccc2)cc1)/C=N/c1ccc(-c2ccccc2)cc1 | > 100 µM (inactive) | > 100 µM (inactive) | > 100 µM (inactive) | > 100 µM (inactive) | > 100 µM (inactive) | > 100 µM (inactive) | > 100 µM (inactive) | > 100 µM (inactive) | > 100 µM (inactive) | > 100 µM (inactive) | > 100 µM (inactive) | > 100 µM (inactive) | > 100 µM (inactive) | > 100 µM (inactive) | > 100 µM (inactive) | > 100 µM (inactive) | > 100 µM (inactive) | > 100 µM (inactive) | > 100 µM (inactive) | – |
| O=C(OCc1ccccc1)N1CCNCCN(C(=O)OCc2ccccc2)CCNCC1 | 86.1 µM (inactive) | – | 25.6 µM (inactive) | 26 µM (inactive) | 19.5 µM (inactive) | 32.2 µM (inactive) | 45.6 µM (inactive) | 22 µM (inactive) | 7.03 µM (inactive) | 23.9 µM (inactive) | 52.8 µM (inactive) | 40.4 µM (inactive) | 25.5 µM (inactive) | 27.5 µM (inactive) | 32.2 µM (inactive) | 24.3 µM (inactive) | 17.7 µM (inactive) | 95.7 µM (inactive) | 21.6 µM (inactive) | – |
| CCOP(=O)(OCC)/C(C#N)=C/c1cccn1N(C)C | > 100 µM (inactive) | > 100 µM (inactive) | > 100 µM (inactive) | > 100 µM (inactive) | > 100 µM (inactive) | > 100 µM (inactive) | 62.2 µM (inactive) | > 100 µM (inactive) | > 100 µM (inactive) | > 100 µM (inactive) | > 100 µM (inactive) | > 100 µM (inactive) | > 100 µM (inactive) | > 100 µM (inactive) | > 100 µM (inactive) | > 100 µM (inactive) | > 100 µM (inactive) | 0.144 µM (active) | > 100 µM (inactive) | > 100 µM (inactive) |
| CCOC(=O)NC(OCCN(C)C)(C(F)(F)F)C(F)(F)F | > 100 µM (inactive) | > 100 µM (inactive) | > 100 µM (inactive) | > 100 µM (inactive) | > 100 µM (inactive) | > 100 µM (inactive) | > 100 µM (inactive) | > 100 µM (inactive) | > 100 µM (inactive) | > 100 µM (inactive) | 9.79 µM (inactive) | – | > 100 µM (inactive) | > 100 µM (inactive) | > 100 µM (inactive) | > 100 µM (inactive) | > 100 µM (inactive) | > 100 µM (inactive) | > 100 µM (inactive) | > 100 µM (inactive) |
| CN(C)c1ccc(/C=C2\N=C(c3ccc([N+](=O)[O-])cc3)OC2=O)cc1 | 38.4 µM (inactive) | > 100 µM (inactive) | > 100 µM (inactive) | 67.5 µM (inactive) | > 100 µM (inactive) | > 100 µM (inactive) | 71.6 µM (inactive) | 53.2 µM (inactive) | – | > 100 µM (inactive) | 21.5 µM (inactive) | > 100 µM (inactive) | 36.1 µM (inactive) | 65.9 µM (inactive) | > 100 µM (inactive) | 41 µM (inactive) | 49.9 µM (inactive) | > 100 µM (inactive) | 71 µM (inactive) | 49.2 µM (inactive) |
| CN1C2CC(=O)CC1[C@@H]1OC(c3ccccc3)O[C@H]21 (some centres undefined) | > 100 µM (inactive) | > 100 µM (inactive) | > 100 µM (inactive) | > 100 µM (inactive) | > 100 µM (inactive) | > 100 µM (inactive) | > 100 µM (inactive) | > 100 µM (inactive) | > 100 µM (inactive) | > 100 µM (inactive) | > 100 µM (inactive) | > 100 µM (inactive) | > 100 µM (inactive) | > 100 µM (inactive) | – | > 100 µM (inactive) | > 100 µM (inactive) | > 100 µM (inactive) | > 100 µM (inactive) | > 100 µM (inactive) |
| CC(C)(C)C(=O)CC1(O)C=C(O)C(O)(CC(=O)C(C)(C)C)O1 (centres undefined) | 4.55 µM (inactive) | 15.8 µM (inactive) | – | 63.5 µM (inactive) | 31.6 µM (inactive) | 7.13 µM (inactive) | 66.4 µM (inactive) | 36.8 µM (inactive) | 29.4 µM (inactive) | 48.5 µM (inactive) | 1.84 µM (inactive) | 12.8 µM (inactive) | 54.8 µM (inactive) | 26.5 µM (inactive) | > 100 µM (inactive) | 24.9 µM (inactive) | 24.8 µM (inactive) | 50.2 µM (inactive) | 10.1 µM (inactive) | 86.9 µM (inactive) |
| O=C1C[C@@H](c2ccccc2)NCCCCN(O)CCCN1 | > 10 µM (inactive) | > 100 µM (inactive) | > 100 µM (inactive) | > 100 µM (inactive) | > 100 µM (inactive) | > 100 µM (inactive) | > 100 µM (inactive) | > 100 µM (inactive) | > 100 µM (inactive) | > 100 µM (inactive) | > 100 µM (inactive) | 88.5 µM (inactive) | – | > 100 µM (inactive) | > 100 µM (inactive) | > 100 µM (inactive) | > 100 µM (inactive) | > 100 µM (inactive) | – | > 100 µM (inactive) |
| CC(=O)Oc1cc(OC(C)=O)c2c(c1C)CC[C@@H]1[C@@H]2CC[C@]2(C)[C@@H](OC(C)=O)CC[C@@H]12 | 16.8 µM (inactive) | 19.5 µM (inactive) | 22.5 µM (inactive) | 16.6 µM (inactive) | 19 µM (inactive) | 17.2 µM (inactive) | 18.5 µM (inactive) | 18 µM (inactive) | 17.5 µM (inactive) | 23 µM (inactive) | 13.1 µM (inactive) | – | 22 µM (inactive) | 18.7 µM (inactive) | > 10 µM (inactive) | 19.1 µM (inactive) | 19.3 µM (inactive) | 24.1 µM (inactive) | 19.3 µM (inactive) | 15.6 µM (inactive) |
| CC(=O)O[C@H]1CC[C@@]2(C)C(=CC[C@@H]3[C@@H]2CC[C@]2(C)c4c(C)nn(-c5ccccc5)c4C[C@@H]32)C1 | 13 µM (inactive) | 53.8 µM (inactive) | 15.6 µM (inactive) | 23 µM (inactive) | 25.5 µM (inactive) | 43.4 µM (inactive) | 9.95 µM (inactive) | 20.7 µM (inactive) | 19.4 µM (inactive) | 3.55 µM (inactive) | 5.42 µM (inactive) | 72.6 µM (inactive) | 2.65 µM (inactive) | 18.5 µM (inactive) | 22.2 µM (inactive) | 24.2 µM (inactive) | 32.8 µM (inactive) | 17 µM (inactive) | 13.8 µM (inactive) | – |
| COc1ccc(C2C3CCc4ccccc4C3=NN2S(=O)(=O)c2ccc(/C=C/C(=O)O)cc2)cc1 (centres undefined) | 0.869 µM (active) | 4.75 µM (inactive) | – | 1.82 µM (inactive) | – | 0.755 µM (active) | 10.4 µM (inactive) | 3.21 µM (inactive) | 5.74 µM (inactive) | 2.93 µM (inactive) | 3.15 µM (inactive) | 7.23 µM (inactive) | 2.84 µM (inactive) | 2.82 µM (inactive) | 9.91 µM (inactive) | 3.07 µM (inactive) | 2.1 µM (inactive) | 22.1 µM (inactive) | 3.52 µM (inactive) | 2.77 µM (inactive) |
| COc1ccc([C@H](NC(=O)c2ccccc2)[C@@H](O)C(=O)O[C@H]2C[C@@]3(O)C(OC(=O)c4ccccc4)C4[C@](C)(C(=O)[C@H](OC(C)=O)C(=C2C)C3(C)C)[C@@H](O)C[C@H]2OC[C@@]42OC(C)=O)cc1 (some centres undefined) | 0.00182 µM (active) | 0.00604 µM (active) | < 0.001 µM (active) | < 0.001 µM (active) | 0.00593 µM (active) | 0.00344 µM (active) | 0.0299 µM (active) | 0.00695 µM (active) | 0.126 µM (active) | 0.0783 µM (active) | 0.0412 µM (active) | 3.11 µM (inactive) | 0.00122 µM (active) | 0.00136 µM (active) | 0.182 µM (active) | < 0.001 µM (active) | < 0.001 µM (active) | 0.00248 µM (active) | 0.00931 µM (active) | 0.0028 µM (active) |
| COc1cc2nc(-c3ccccc3F)nc(O)c2cc1OC | > 100 µM (inactive) | > 100 µM (inactive) | > 100 µM (inactive) | > 100 µM (inactive) | – | > 100 µM (inactive) | > 100 µM (inactive) | – | 63.2 µM (inactive) | > 100 µM (inactive) | > 100 µM (inactive) | > 100 µM (inactive) | > 100 µM (inactive) | 60 µM (inactive) | > 100 µM (inactive) | > 100 µM (inactive) | 86.9 µM (inactive) | > 100 µM (inactive) | 71.8 µM (inactive) | > 100 µM (inactive) |
| O=[N+]([O-])c1ccc(Oc2c(Cl)cc(S(=O)(=O)N/C(=N\O)Nc3ccc(Cl)cc3)cc2Cl)cc1 | 4.02 µM (inactive) | 12.6 µM (inactive) | – | 13.5 µM (inactive) | 13.9 µM (inactive) | 14 µM (inactive) | 12 µM (inactive) | 13 µM (inactive) | 5.79 µM (inactive) | 13.1 µM (inactive) | 13.5 µM (inactive) | 3.94 µM (inactive) | 13.8 µM (inactive) | 11.5 µM (inactive) | 7.66 µM (inactive) | 2.47 µM (inactive) | 7 µM (inactive) | 15.1 µM (inactive) | 11.6 µM (inactive) | 14.8 µM (inactive) |
